# Laboratory results from patent US20240229098A1, “BIOLUMINOGENIC ASSAY FOR DRUG-RESISTANCE BACTERIA DETECTION” (priority 2021, published 2024).
# Entries after “also recorded” stand apart in the source; their conditions may differ.
# Assays:
# [1] = molecular target: T1, TEM-1 (Escherichia coli, UniProt P62593); experiment: Fluorescence turn-on of caged luciferin probes with recombinant TEM-1 bla; format: biochemical; set-up: made in house
# Description: D-Bluco was evaluated as to whether it could be processed by β-lactamase to release luciferin with one of the most prevalent Ambler class A β-lactamases, TEM-1.
# Both probes were evaluated to with TEM-1 bla, one of the most abundant β-Lactamases for initial testing. The fluorescent signal of D-Bluco and O-Bluco incubated with 100 nM TEM-1 bla was examined with a microplate reader over a period of 40 minutes.
# General information: All chemicals were purchased from commercial sources and used without further purification. […] QuantiLum Recombinant luciferase (catalog number E1701) was purchased from Promega (Madison, WI). Reaction progress was monitored by analytical thin layer chromatography (TLC) with 0.25 mm silica gel 60F plates and visualized with fluorescent indicator (254 nm). Flash column chromatography was conducted using silica gel (SiliaFlash for flash column, 40-63 μm, 60 Å). The ^1H and ^13C NMR spectra were acquired on a Varian 500 MHz or 600 MHz magnetic resonance spectrometer. Data for ^1H NMR spectra are reported as follows: chemical shifts are reported as δ in units of parts per million (ppm) relative to chloroform-d (δ 7.26, s); multiplicities are reported as follows: s (singlet), d (doublet), t (triplet), q (quartet), dd (doublet of doublets), m (multiplet), or br (broadened); coupling constants are reported as a J value in Hertz (Hz); and the number of protons (n) for a given resonance is indicated nH and based on the spectral integration values. High resolution mass spectra were obtained on a Thermo Exactive Orbitrap LC/MS. HPLC was performed on a Dionex HPLC System (Dionex Corporation) equipped with a GP50 gradient pump and an inline diode array UV-Vis detector. A reversed-phase C18 (Phenomenax, 5 μm, 10×250 mm or Dionex, 5 μm, 4.6×250 mm) column was used with a MeCN (B)/H2O (A) gradient mobile phase containing 0.1% trifluoroacetic acid at a flow of 1 or 3 mL/min for the analysis. Fluorescence Spectra and kinetic experiments were collected by a SpectraMax iD3 multimode microplate reader (Molecular Device, San Jose, CA).
# [2] = molecular target: T1, TEM-1; format: biochemical; set-up: made in house; details: 10 μM probe
# Description: RLU indicates relative light units.
# FIGS. 9A and 9B illustrates bioluminescent studies of D-Bluco and O-Bluco treating with various β-lactamases. 10 μM of Bluco, D-Bluco and O-Bluco incubated with 20 nM TEM-1 for 15 min in PBS at r.t. The bioluminescent signals for each compound was evaluated with or without the addition of TEM-1 by a luminator. […] The relative bioluminescent was calculated by removing background signal in PBS.
# The bioluminescence emission from the released D-luciferin was measured. […] Also evaluated was whether there was interference between luciferase and β-lactamases in such dual enzyme reaction system.
# The signal to background ratio for D-Bluco, O-Bluco, and Bluco was measured following the addition of the firefly luciferase (fLuc).
# The caged luciferin probes were incubated with different concentrations of TEM-1 β-lactamase or IMP-1 carbapenemase (0.001-0.1 fmol) in PBS (pH=7.4) for 2 hr at 25° C. Then a mixture of luciferase (200 nM), ATP (2 mM), and MgCl2 (4 mM) was added, and bioluminescent signals were detected with a SpectraMax microplate reader or a luminator.
# [3] = test system: K. pneumoniae/KPC lysate; experiment: Bioluminescence with bacterial lysate compared to intact bacteria, K. pneumoniae/KPC; details: CHAPS lysis
# Description: (§1) To evaluate whether releasing β-lactamases from periplasm could improve detection sensitivity, the bacteria were lysed.
# (§2) Two clinically significant isolates K. pneumoniae expressing KPC carbapenemase (K. pneumoniae/KPC) and E. coli expressing New Delhi metallo β-lactamase (E. coli/NDM) were evaluated.
# (§3) Bacteria was mixed with 0.5% CHAPS lysis buffer for 15 min, and then incubated with D-Bluco at room temperature for another 15 min. The resulted mixture was combined with assay buffer which contains MgCl2, CoA, ATP, and luciferase for immediate bioluminescent reading.
# [4] = test system: E. coli/TEM; experiment: Inhibitor test with E. coli/TEM and D-Bluco; details: D-Bluco 10 μM, no inhibitor
# [5] = molecular target: KPC-3 (Klebsiella pneumoniae, UniProt Q9F663, H272Y); experiment: Limit of detection of recombinant β-lactamase by bioluminescence (KPC-3); format: biochemical; details: 2 hours, room temperature; 3 SD of negative control
# KPC-3, sequence (Q9F663 25-293 H272Y): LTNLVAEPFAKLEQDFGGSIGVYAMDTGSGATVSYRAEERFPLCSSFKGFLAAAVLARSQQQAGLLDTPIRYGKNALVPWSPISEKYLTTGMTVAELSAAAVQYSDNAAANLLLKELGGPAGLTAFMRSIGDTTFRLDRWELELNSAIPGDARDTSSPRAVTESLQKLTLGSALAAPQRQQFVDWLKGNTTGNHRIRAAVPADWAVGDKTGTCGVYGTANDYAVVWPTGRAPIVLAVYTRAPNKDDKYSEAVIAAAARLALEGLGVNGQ
# [6] = molecular target: T1, TEM-1; experiment: Limit of detection of recombinant β-lactamase by bioluminescence (TEM-1); format: biochemical; set-up: made in house; details: 2 hours, room temperature; 3 SD of negative control
# [7] = test system: K. pneumoniae/KPC; experiment: RAPID BLI test, clinic isolate spiked into synthetic urine, K. pneumoniae/KPC; details: K. pneumoniae/KPC in synthetic urine, D-Bluco 10 μM
# Description: (§4) The modified rapid BLI protocol is applied. The signal of D-Bluco in PBS was subtracted before plotting. The working concentration of D-Bluco was 10 μM. All the studies were duplicated at room temperature in PBS (pH=7.4). Statistical significance was calculated using the unpaired two-tailed Student's t test (** p<0.0021, *** p<0.0002, **** p<0.0001, for comparison with 10^5 cfu/mL E. coli) (** p<0.0021, **** p<0.0001, ns: not significant). RLU indicates relative light units. Dotted line represents 3SD of the negative control.
# as §3
# (§5) Clinic isolates representing different classes (class A: Enterobacter cloacae/IMI, E. coli/TEM, K. pneumoniae/KPC; class B: E. coli/NDM, and class C: E. cloacae/AmpC) were spiked into synthetic urine samples.
# [8] = test system: E. cloacae/AmpC; experiment: RAPID BLI test, clinic isolate spiked into synthetic urine, E. cloacae/AmpC; details: E. cloacae/AmpC in synthetic urine, D-Bluco 10 μM
# Description: as §4, §3, §5
# [9] = test system: AmpC; experiment: Limit of detection of recombinant β-lactamase by bioluminescence (AmpC); format: biochemical; details: 2 hours, room temperature; 3 SD of negative control
# [10] = molecular target: T2, OXA-48 (Klebsiella pneumoniae, UniProt Q6XEC0); experiment: Limit of detection of recombinant β-lactamase by bioluminescence (OXA-48); format: biochemical
# T2 construct: made in house
# T2 sequence (Q6XEC0 23-265 limits assumed): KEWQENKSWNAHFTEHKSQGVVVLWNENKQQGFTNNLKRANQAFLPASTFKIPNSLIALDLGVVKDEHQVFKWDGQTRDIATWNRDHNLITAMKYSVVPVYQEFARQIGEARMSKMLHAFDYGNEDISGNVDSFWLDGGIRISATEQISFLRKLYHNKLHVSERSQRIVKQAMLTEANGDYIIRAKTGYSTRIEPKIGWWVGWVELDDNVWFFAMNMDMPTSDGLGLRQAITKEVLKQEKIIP
# [11] = test system: E. coli/NDM lysate; experiment: Bioluminescence with bacterial lysate compared to intact bacteria, E. coli/NDM; details: CHAPS lysis
# Description: as §1, §2, §3
# [12] = test system: E. coli expressing OXA-48; experiment: Clinical isolate spiked in synthetic urine, filtered and centrifuged, E. coli expressing OXA-48; format: cell-based, Escherichia coli; details: E. coli expressing OXA-48, 10 μM D-Bluco, an hour at 37° C., PBS pH 7.4
# Description: FIGS. 11A-11C illustrate detection of clinical isolates spiked in urine with D-Bluco a) Workflow for clinical sample detection b) Bioluminescent response for different concentrations of S. marcescens (SME) or c) E. coli/OXA-48 spiked into synthetic urine samples following the incubation with D-Bluco (10 μM) at 37° C. for an hour. Bioluminescent signal was measured and compared to that of E. coli (10^6 c.f.u/mL).
# Urinary tract infection (UTI) is a severe public health problem because of the high recurrence rates and increasing antimicrobial resistance. It is among the major cause of patient morbidity and health care expenditures for both men and women of all age groups, accounting for 1 million cases of nosocomial in USA annually and an estimate cost of 1.6 billion. As a proof-of-concept, we spiked different concentrations of clinic isolates into synthetic urine samples. E. coli expressing OXA-48 and S. marcescens (SME) were chosen as examples. S. marcescens, being an opportunistic pathogen, accounts for an average of 6.5% of all Gram negative infection in intensive Care Units. The spiked urine samples were filtered and centrifuged to collect the bacteria (FIG. 11A). The collected bacteria were then diluted in PBS (pH=7.4) and incubated with 10 μM D-Bluco for an hour at 37° C.
# T1 sequence (P62593 24-286 limits assumed): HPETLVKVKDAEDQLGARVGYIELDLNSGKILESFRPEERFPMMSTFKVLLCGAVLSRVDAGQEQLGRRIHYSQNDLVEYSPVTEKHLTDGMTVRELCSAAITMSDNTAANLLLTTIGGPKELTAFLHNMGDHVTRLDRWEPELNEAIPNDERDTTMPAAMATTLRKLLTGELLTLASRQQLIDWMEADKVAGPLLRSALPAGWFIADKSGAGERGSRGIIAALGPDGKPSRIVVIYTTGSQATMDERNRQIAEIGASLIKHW
smiles,measurement,setting,value
"CN(C)c1ccc(/N=N/c2ccc(C(=O)NCCCCCC(=O)NC3C(=O)N4C(C(=O)O)=C(COc5ccc6nc(C7=N[C@@H](C(=O)O)CS7)sc6c5)C[S+]([O-])C34)cc2)cc1 (stereo partly drawn) [D-Bluco, 3-(((2-((S)-4-carboxy-4,5-dihydrothiazol-2-yl)benzo[d]thiazol-6-yl)oxy)methyl)-7-(6-(4-((E)-(4-(dimethylamino)phenyl)diazenyl)benzamido)hexanamido)-8-oxo-5-thia-1-azabicyclo[4.2.0]oct-2-ene-2-carboxylic acid 5-oxide]",fold increase in fluorescence emission in the presence of TEM-1,"[1]; 1 μM probe, TEM-1 100 nM, 40 min, PBS pH 7.4, r.t., excitation 330 nm, emission 530 nm",37.6 fold
same,time of rapid fluorescence intensity increase before plateau,"[1]; TEM-1 bla 100 nM, monitored over 40 minutes",≤ 10 min
same,fluorescence emission in the absence of TEM-1,"[1]; without TEM-1, excitation 330 nm, emission 530 nm",little emission
same,"fold increase in bioluminescence emission upon TEM-1 treatment (turn-on ratio, signal with TEM-1 over signal without TEM-1)","[2]; TEM-1 20 nM, 15 min, PBS pH 7.4, r.t.",1420 fold
same,initial bioluminescent background signal without TEM-1,[2]; without TEM-1,significantly lower than that of Bluco; also recorded: lowest background signal
same,signal enhancement with lysate compared to intact bacteria,[3],141 fold
same,increase of bioluminescent intensity of E. coli/TEM-1 treated with probe over PBS,[4],260 fold
same,limit of detection (LOD) of KPC-3 (all other β-lactamases),[5],0.001 femtomole
same,limit of detection (LOD) of TEM-1 (all other β-lactamases),[6],0.001 femtomole
same,concentration detected directly without culture,[7],10^3 cfu/mL
same,concentration detected directly without culture,[8],10^2 cfu/mL
same,limit of detection (LOD) of AmpC,[9],0.1 femtomole
same,efficiency of OXA-48 in hydrolyzing the probe,[10],low efficiency
same,limit of detection (LOD) of OXA-48,"[10]; 2 hours, room temperature, 3 SD of negative control (D-Bluco in PBS)",0.1 femtomole
same,signal enhancement with lysate compared to intact bacteria,[11],145 fold
same,concentration from which significant bioluminescence enhancement is seen,[12],10^5 c.f.u/mL
